The IC50 is the concentration needed to halve the response being measured.

Sequence of Prolyl endopeptidase (Mus musculus, UniProt Q9QUR6) (Q9QUR6 whole entry): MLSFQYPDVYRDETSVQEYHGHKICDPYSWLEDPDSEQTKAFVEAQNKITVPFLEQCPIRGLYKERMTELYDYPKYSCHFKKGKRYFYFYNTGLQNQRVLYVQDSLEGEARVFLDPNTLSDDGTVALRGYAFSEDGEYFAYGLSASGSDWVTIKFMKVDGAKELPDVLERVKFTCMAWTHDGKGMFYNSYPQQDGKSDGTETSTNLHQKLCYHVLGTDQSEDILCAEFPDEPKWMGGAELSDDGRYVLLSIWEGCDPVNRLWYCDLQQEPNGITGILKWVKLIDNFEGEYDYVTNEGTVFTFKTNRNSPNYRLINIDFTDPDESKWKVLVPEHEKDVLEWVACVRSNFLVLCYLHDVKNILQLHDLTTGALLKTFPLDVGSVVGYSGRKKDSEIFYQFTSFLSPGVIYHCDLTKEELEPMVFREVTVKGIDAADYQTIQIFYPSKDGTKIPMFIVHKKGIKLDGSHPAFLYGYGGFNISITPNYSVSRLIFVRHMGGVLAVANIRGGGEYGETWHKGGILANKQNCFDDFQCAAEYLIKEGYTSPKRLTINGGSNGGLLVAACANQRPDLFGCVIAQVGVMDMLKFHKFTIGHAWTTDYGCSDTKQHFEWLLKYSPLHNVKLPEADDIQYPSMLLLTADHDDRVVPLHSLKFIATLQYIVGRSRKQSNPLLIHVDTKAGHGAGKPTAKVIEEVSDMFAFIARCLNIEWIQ

The first test has as its target Prolyl endopeptidase (Mus musculus, UniProt Q9QUR6). Nature of the test: Inhibition of PREP in C57BL/6 mouse cortex homogenate assessed as formation of 7-amido-4-methylcoumarin using Suc-Gly-Pro-amido-4-methylcoumarin as substrate preincubated for 30 mins followed by substrate addition measured after 60 mins by fluorometric assay.
`CN(CC(=O)N1CCC[C@H]1C(N)=O)C(=O)CCCc1ccccc1`: the IC50 was 457 µM. Turning to `NC(=O)[C@@H]1CCCN1C(=O)CNC(=O)CCCc1ccccc1`, the IC50 worked out at 154 µM. For `N#C[C@@H]1CCCN1C(=O)CNC(=O)CCCc1ccccc1`, the IC50 was 0.264 µM. The same measure, in the same setting: to `C[C@@H](C(=O)N1CCC[C@H]1C(N)=O)N(C)C(=O)CCCc1ccccc1` belongs 28.8 µM; to `CC(C)(NC(=O)CCCc1ccccc1)C(=O)N1CCCC1`, 13.5 µM; to `C[C@H](NC(=O)CCCc1ccccc1)C(=O)N1CCC[C@H]1c1nnn[nH]1`, 0.091 µM. As for `CN(CC(=O)N1CCCC1)C(=O)CCCc1ccccc1`, the IC50 came to 5.14 µM. As to `C[C@H](NC(=O)CCCc1ccccc1)C(=O)N1CCC[C@H]1C#N`, the IC50 was 0.00328 µM. Take `C[C@@H](NC(=O)CCCc1ccccc1)C(=O)N1CCCC1`: the IC50 turned out to be 35.2 µM. As to `C[C@@H](C(=O)N1CCCC1)N(C)C(=O)CCCc1ccccc1`, the IC50 came out at 0.298 µM. Same read-out and setting: to `O=C(CCCc1ccccc1)NCCC(=O)N1CCCC1` belongs 12.1 µM; to `C[C@H](NC(=O)CCCc1ccccc1)C(=O)N1CCC[C@H]1C(N)=O`, 6.21 µM.

A further test deals with Prolyl endopeptidase (Sus scrofa, UniProt P23687). Nature of the test: Inhibition of recombinant porcine brain PREP expressed in Escherichia coli assessed as formation of 7-amido-4-methylcoumarin using Suc-Gly-Pro-amido-4-methylcoumarin as substrate preincubated for 30 mins followed by substrate addition measured after 60 mins by fluorometric assay.
Sequence of Prolyl endopeptidase (Sus scrofa, UniProt P23687) (P23687 whole entry): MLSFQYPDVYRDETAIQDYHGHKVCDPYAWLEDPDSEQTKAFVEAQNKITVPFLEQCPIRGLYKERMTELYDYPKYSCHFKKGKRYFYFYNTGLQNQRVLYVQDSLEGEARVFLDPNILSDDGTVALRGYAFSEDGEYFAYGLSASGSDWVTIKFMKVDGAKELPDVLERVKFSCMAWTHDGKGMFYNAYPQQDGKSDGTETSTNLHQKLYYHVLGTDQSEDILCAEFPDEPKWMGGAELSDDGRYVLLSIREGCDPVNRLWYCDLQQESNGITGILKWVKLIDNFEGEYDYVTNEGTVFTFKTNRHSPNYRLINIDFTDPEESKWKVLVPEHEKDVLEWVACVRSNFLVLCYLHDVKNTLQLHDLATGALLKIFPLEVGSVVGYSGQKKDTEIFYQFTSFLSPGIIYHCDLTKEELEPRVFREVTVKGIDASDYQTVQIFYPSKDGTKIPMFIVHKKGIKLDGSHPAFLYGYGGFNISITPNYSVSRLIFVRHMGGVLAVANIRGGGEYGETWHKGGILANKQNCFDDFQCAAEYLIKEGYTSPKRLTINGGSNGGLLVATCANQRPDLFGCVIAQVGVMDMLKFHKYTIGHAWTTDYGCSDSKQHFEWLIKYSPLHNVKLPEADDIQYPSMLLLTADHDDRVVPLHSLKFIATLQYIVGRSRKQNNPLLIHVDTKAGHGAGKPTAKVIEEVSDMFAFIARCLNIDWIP
Regarding `O=C(CCCc1ccccc1)N1CCC[C@H]1C(=O)N1CCC[C@H]1c1nnn[nH]1`, the concentration for half-maximal inhibition (IC50) came to 0.012 µM. The same measure, in the same setting: in the case of `C[C@@H](C(=O)N1CCC[C@H]1c1nnn[nH]1)N(C)C(=O)CCCc1ccccc1` it was 27.2 µM; in that of `N#C[C@@H]1CCCN1C(=O)CNC(=O)CCCc1ccccc1`, 0.22 µM; in that of `C[C@@H](C(=O)N1CCC[C@H]1C#N)N(C)C(=O)CCCc1ccccc1`, 0.0054 µM. Turning to `C[C@H](NC(=O)CCCc1ccccc1)C(=O)N1CCC[C@H]1C(=O)O`, the half-inhibitory concentration (IC50) came out at 17.5 µM. On the same count and under the same terms, to `O=C(CCCc1ccccc1)NCC(=O)N1CCC[C@H]1c1nnn[nH]1` belongs 205 µM; to `NC(=O)[C@@H]1CCCN1C(=O)[C@@H]1CCCN1C(=O)CCCc1ccccc1`, 4.37 µM; to `CN(CC(=O)N1CCC[C@H]1c1nnn[nH]1)C(=O)CCCc1ccccc1`, 10.6 µM. Consider `C[C@H](NC(=O)CCCc1ccccc1)C(=O)N1CCCC1`, for which the IC50 turned out to be 0.147 µM. Same read-out and setting: to `CN(CC(=O)N1CCC[C@H]1C#N)C(=O)CCCc1ccccc1` belongs 0.269 µM. On to `C[C@H](NC(=O)CCCc1ccccc1)C(=O)N1CCC[C@H]1C#N`, for which the IC50 was 0.00406 µM.

`O=C(O)[C@@H]1CCCN1C(=O)[C@@H]1CCCN1C(=O)CCCc1ccccc1`: the IC50 is 3.63 µM.

The record behind these values is ChEMBL document CHEMBL4406920, “Tetrazole as a Replacement of the Electrophilic Group in Characteristic Prolyl Oligopeptidase Inhibitors” (ACS Med Chem Lett, 2019).
